Experimental data reported in ChEMBL document CHEMBL5143721, “Novel Hydroxychalcone-Based Dual Inhibitors of Aldose Reductase and α-Glucosidase as Potential Therapeutic Agents against Diabetes Mellitus and Its Complications” (J Med Chem, 2022).

What was measured:
[1] = Inhibition of Wistar rat lens ALR2 using D,L-glyceraldehyde as substrate preincubated for 10 mins in presence of NADPH followed by substrate addition and measured after 4 mins; assay type: tissue-based
[2] = Inhibition of Wistar rat kidney ALR1 using sodium D-glucuronate as substrate preincubated for 10 mins in presence of NADPH followed by substrate addition and measured after 4 mins; assay type: tissue-based
[3] = Antioxidant activity assessed as DPPH radical scavenging activity at 100 uM incubated for 30 mins by DPPH assay relative to control; assay type: functional
Rattus norvegicus [4] = species: Rattus norvegicus; test: Selectivity index, ratio of IC50 for Wistar rat kidney ALR1 to IC50 for Wistar rat lens ALR2
[5] = Antioxidant activity assessed as DPPH radical scavenging activity at 50 uM incubated for 30 mins by DPPH assay relative to control; assay type: functional
[6] = Antioxidant activity assessed as DPPH radical scavenging activity at 10 uM incubated for 30 mins by DPPH assay relative to control; assay type: functional
[7] = Antioxidant activity assessed as DPPH radical scavenging activity at 5 uM incubated for 30 mins by DPPH assay relative to control; assay type: functional
[8] = Antioxidant activity assessed as DPPH radical scavenging activity at 1 uM incubated for 30 mins by DPPH assay relative to control; assay type: functional
Brain [9] = test: Antioxidant activity in rat brain homogenate assessed as inhibition of lipid peroxidation by measuring MDA concentration at 100 uM by TBARS assay relative to control; assay type: functional, tissue-based; set-up: scale not given: the % may be the effect or the level left
Brain [10] = test: Antioxidant activity in rat brain homogenate assessed as inhibition of lipid peroxidation by measuring MDA concentration at 50 uM by TBARS assay relative to control; assay type: functional, tissue-based; set-up: scale not given: the % may be the effect or the level left
Brain [11] = test: Antioxidant activity in rat brain homogenate assessed as inhibition of lipid peroxidation by measuring MDA concentration at 10 uM relative to control; assay type: functional, tissue-based; set-up: scale not given: the % may be the effect or the level left
[12] = Inhibition of Saccharomyces cerevisiae Alpha-glucosidase using p-nitrophenyl glucopyranoside as substrate preincubated for 5 mins followed by substrate addition and measured for 30 mins
[13] = Octanol/buffer distribution coefficient, log D of compound at pH 7.4 incubated for 24 hrs by shake flask based HPLC method; assay type: physicochemical
Rattus norvegicus [14] = test: Antidiabetic activity against STZ-induced diabetic Sprague-Dawley rat model assessed as reduction in fasting blood glucose level at 80 mg/kg, IG administered once daily for 28 days; assay type: functional; set-up: scale not given: the % may be the effect or the level left; settings: time 28 day
[15] = In vivo inhibition of ALR2 in STZ-induced diabetic Sprague-Dawley rat model assessed as reduction in ALR2 activity in lens at 80 mg/kg, IG administered once daily for 28 days relative to control; assay type: functional; set-up: scale not given: the % may be the effect or the level left; settings: time 28 day

SMILES | IC50 [1] [µM] | IC50 [2] [µM] | Ratio IC50 (Rattus norvegicus [4]) | IC50 [12] [µM] | also measured
COC(=O)Cn1c(=O)oc2c(C(=O)/C=C/c3ccc(O)c(OC)c3)cccc21 | 13.2 | > 100 | > 7.59 |  | Activity [3]: 92.4%; Activity [5]: 82.2%; Activity [6]: 50.3%; Activity [7]: 25.4%; Activity [8]: 14.8%; Activity (Brain [9]): 66.1%; Activity (Brain [10]): 43%; Activity (Brain [11]): 23.6%
COC(=O)Cn1c(=O)oc2cc(/C=C/c3ccc(O)cc3)ccc21 | 72.2 |  |  |  | 
O=C(/C=C/c1ccc(O)c(O)c1)c1cccc2[nH]c(=O)oc12 | 3.54 | 2.12 | 0.595 | 63.7 | 
COC(=O)Cn1c(=O)oc2c(C(=O)/C=C/c3cc(F)c(O)c(F)c3)cccc21 | 0.111 | 7.84 | 70.7 | 71.2 | Activity [3]: 52.9%; Activity [5]: 35%; Activity [6]: 9.1%; Activity (Brain [9]): 28%; Activity (Brain [10]): 20.9%; logD at 24 h [13]: 1.07
COC(=O)Cn1c(=O)oc2c(C(=O)/C=C/c3ccc(O)cc3)cccc21 | 0.226 | > 100 | > 415 | 55.4 | Activity [3]: 46.3%; Activity [5]: 30%; Activity [6]: 10.6%; Activity (Brain [9]): 38%; Activity (Brain [10]): 24.1%; logD at 24 h [13]: 1.46
O=C(/C=C/c1cccc(O)c1)c1cccc2[nH]c(=O)oc12 | > 100 | > 100 |  |  | 
CC(/C=C1\SC(=S)N(CC(=O)O)C1=O)=C\c1ccccc1 | 0.119 | 5.29 | 44.5 |  | logD at 24 h [13]: 0.21; Activity (Rattus norvegicus [14]): 20.9%; Activity [15]: 62.1%
O=C(/C=C/c1ccc(O)cc1)c1cccc2[nH]c(=O)oc12 | 2.85 | > 100 | > 35.1 | 104 | 
COc1cc(/C=C/C(=O)c2cccc3[nH]c(=O)oc23)ccc1O | > 100 | > 100 |  |  | 
O=C(/C=C/c1cc(F)c(O)c(F)c1)c1cccc2[nH]c(=O)oc12 | 0.491 | 1.41 | 2.87 | 107 | 
COc1ccc(/C=C/C(=O)c2cccc3[nH]c(=O)oc23)cc1 | > 100 | > 100 |  |  | 
COC(=O)Cn1c(=O)oc2c(C(=O)/C=C/c3ccc(OC)cc3)cccc21 | > 100 | > 100 |  |  | 
COC(=O)Cn1c(=O)oc2c(/C=C/c3ccc(O)cc3)cccc21 | 11.7 |  |  |  | 
CC(C)=CCn1c(=O)oc2c(C(=O)/C=C/c3ccc(O)cc3)cccc21 | 0.201 | > 100 | > 498 | 41.5 | Activity [3]: 39.1%; Activity [5]: 18.3%; Activity [6]: 7.1%; Activity (Brain [9]): 38.7%; Activity (Brain [10]): 27%; logD at 24 h [13]: 1.65
COC(=O)Cn1c(=O)oc2c(C(=O)/C=C/c3ccc(O)c(C(F)(F)F)c3)cccc21 | 56.1 | > 100 | > 1.78 |  | 
COC(=O)Cn1c(=O)oc2ccc(/C=C/c3ccc(O)cc3)cc21 | > 100 |  |  |  | 
